Measurements from patent US12398107B2, “Fungicidal nitroanilino substituted pyrazoles” (FMC Corporation, priority 2018, dated 2025).

Tests used:
Format in all cases: in vivo
Septoria tritici = assay: Test A: wheat leaf blotch, preventive spray on wheat seedlings; conditions: 100 = 100% disease control, 0 = no control relative to controls; for Test A disease control rating (wheat leaf blotch) / pest or weed control at 50 ppm: 50 ppm
Method in brief: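 Compounds were suspended in acetone/water (50/50) with 250 ppm PEG400 and sprayed to run-off on wheat seedlings. The next day the seedlings were inoculated with Septoria tritici spores, held 48 h at 24 °C in saturated humidity, then 17 days at 20 °C. Disease control was rated 0–100 relative to controls.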

[1] = tested on: Puccinia recondita f. sp. tritici; assay: Test B: wheat leaf rust, preventive spray on wheat seedlings; conditions: 100 = 100% disease control, 0 = no control relative to controls; for Test B disease control rating (wheat leaf rust) / pest or weed control at 50 ppm: 50 ppm
Method in brief: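 Compounds in acetone/water (50/50) with 250 ppm PEG400, sprayed to run-off on wheat seedlings at stated ppm; inoculated next day with P. recondita spores. Held 24 h saturated at 20° C., then 7 days in growth chamber at 20° C.; rating 0–100 = % disease control vs controls.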

[2] = tested on: Blumeria graminis f. sp. tritici; assay: Test C: wheat powdery mildew, preventive spray on wheat seedlings; conditions: rated after 8 days, 100 = 100% disease control, 0 = no control; for Test C disease control rating (wheat powdery mildew) / pest or weed control at 50 ppm: 50 ppm
Method in brief: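 Compound dissolved in acetone (3% of final volume), then suspended in 50/50 acetone/water with 250 ppm PEG400 and sprayed to run-off on wheat seedlings. Inoculated next day with B. graminis f. sp. tritici spore dust, kept 8 days at 20° C; visual rating, 100 = full control, 0 = none, relative to controls.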

Phakopsora pachyrhizi = assay: Test D: Asian soybean rust, preventive spray on soybean seedlings; conditions: 100 = 100% disease control, 0 = no control; for Test D disease control rating (Asian soybean rust) / pest or weed control at 50 ppm: 50 ppm
Method in brief: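 Soybean seedlings sprayed to run-off with compound suspension (ppm, in 50/50 acetone/water with 250 ppm PEG400), inoculated next day with P. pachyrhizi spores, held 24 h saturated at 22°C then 8 days at 22°C. Visual rating 0-100% disease control relative to controls.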

Botrytis cinerea = assay: Test E: tomato Botrytis, preventive spray on tomato seedlings; conditions: 100 = 100% disease control, 0 = no control; for Test E disease control rating (tomato Botrytis) / pest or weed control at 50 ppm: 50 ppm
Method in brief: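 Tomato seedlings sprayed to run-off with compound (ppm) in acetone/water with 250 ppm PEG400, then inoculated next day with B. cinerea spores. Held 48 h at 20 °C in saturated atmosphere, then 3 days at 24 °C. Visual rating 0–100% disease control relative to untreated controls.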

Alternaria solani = assay: Test F: tomato early blight, preventive spray on tomato seedlings; conditions: 100 = 100% disease control, 0 = no control; for Test F disease control rating (tomato early blight) / pest or weed control at 50 ppm: 50 ppm
Method in brief: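 Compounds in acetone/water (50/50) with 250 ppm PEG400, dosed in ppm, sprayed to run-off on tomato seedlings; next day inoculated with A. solani spores. Held 48 h saturated at 27° C, then 3 days at 20° C; visual rating 0–100% disease control relative to controls.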

[3] = Zymoseptoria tritici, read-out: Test A disease control rating (wheat leaf blotch)
[4] = read-out: Test B disease control rating (wheat leaf rust)
[5] = Blumeria graminis, 192 h, read-out: Test C disease control rating (wheat powdery mildew)
[6] = Phakopsora pachyrhizi, read-out: Test D disease control rating (Asian soybean rust)
[7] = Botrytis cinerea, read-out: Test E disease control rating (tomato Botrytis)
[8] = Alternaria solani, read-out: Test F disease control rating (tomato early blight)

| Compound | Test A disease control rating (wheat leaf blotch) (Septoria tritici) [%] | Test B disease control rating (wheat leaf rust) [1] [%] | Test C disease control rating (wheat powdery mildew) [2] [%] | Test D disease control rating (Asian soybean rust) (Phakopsora pachyrhizi) [%] | Test E disease control rating (tomato Botrytis) (Botrytis cinerea) [%] | Test F disease control rating (tomato early blight) (Alternaria solani) [%] | pest or weed control at 10 ppm (Septoria tritici; Zymoseptoria tritici, 10 ppm, read-out: Test A disease control rating (wheat leaf blotch)) [%] | pest or weed control at 50 ppm (Septoria tritici; [3]) [%] | pest or weed control at 10 ppm ([1]; 10 ppm, read-out: Test B disease control rating (wheat leaf rust)) [%] | pest or weed control at 50 ppm [1, 4] [%] | pest or weed control at 10 ppm ([2]; Blumeria graminis, 192 h, 10 ppm, read-out: Test C disease control rating (wheat powdery mildew)) [%] | pest or weed control at 50 ppm [2, 5] [%] | pest or weed control at 10 ppm (Phakopsora pachyrhizi; Phakopsora pachyrhizi, 10 ppm, read-out: Test D disease control rating (Asian soybean rust)) [%] | pest or weed control at 50 ppm (Phakopsora pachyrhizi; [6]) [%] | pest or weed control at 10 ppm (Botrytis cinerea; Botrytis cinerea, 10 ppm, read-out: Test E disease control rating (tomato Botrytis)) [%] | pest or weed control at 50 ppm (Botrytis cinerea; [7]) [%] | pest or weed control at 10 ppm (Alternaria solani; Alternaria solani, 10 ppm, read-out: Test F disease control rating (tomato early blight)) [%] | pest or weed control at 50 ppm (Alternaria solani; [8]) [%] |
| --- | --- | --- | --- | --- | --- | --- | --- | --- | --- | --- | --- | --- | --- | --- | --- | --- | --- | --- |
| COc1ccc(Nc2c(-c3ccc(F)cc3Br)c(C)nn2C)c([N+](=O)[O-])c1 [Compound 52] | 100 | 100 | 90 | 59 | 99 | 94 |  |  |  |  |  |  |  |  |  |  |  |  |
| Cc1cccc([N+](=O)[O-])c1Nc1c(-c2ccc(C#N)cc2Cl)c(C)nn1C [Compound 157] | 100 | 97 | 76 | 0 | 9 | 0 |  |  |  |  |  |  |  |  |  |  |  |  |
| COc1cc(F)c(-c2c(C)nn(C)c2Nc2ccccc2[N+](=O)[O-])c(F)c1 [Compound 147] | 96 | 86 | 97 | 0 | 100 | 99 |  |  |  |  |  |  |  |  |  |  |  |  |
| Cc1nn(C)c(Nc2ccc(Br)cc2[N+](=O)[O-])c1-c1ccc(F)cc1Br [Compound 21] | 100 | 86 | 84 | 0 | 95 | 17 |  |  |  |  |  |  |  |  |  |  |  |  |
| COc1ccc(Nc2c(-c3ccc(C#N)cc3Br)c(C)nn2C)c([N+](=O)[O-])c1 [Compound 180] | 100 | 98 | 79 | 0 | 99 | 98 |  |  |  |  |  |  |  |  |  |  |  |  |
| CCc1nn(C)c(Nc2c(F)cccc2[N+](=O)[O-])c1-c1ccc(F)cc1Cl [Compound 72, 4-(2-chloro-4-fluorophenyl)-N-(2-fluoro-6-nitrophenyl)-3-ethyl-1-methyl-1H-pyrazol-5-amine] |  |  |  |  |  |  | 100 | 100 | 85 | 100 | 81 | 99 | 12 | 31 | 98 | 98 | 63 | 99 |
| Cc1nn(C)c(Nc2c(F)cccc2[N+](=O)[O-])c1-c1c(F)cc(C#N)cc1F [Compound 114] | 100 | 98 | 99 | 73 | 100 | 99 |  |  |  |  |  |  |  |  |  |  |  |  |
| Cc1nn(C)c(Nc2c(F)cccc2[N+](=O)[O-])c1-c1c(F)cc(Cl)cc1F [Compound 151] | 100 | 100 | 99 | 0 | 99 | 99 |  |  |  |  |  |  |  |  |  |  |  |  |
| Cc1nn(C)c(Nc2ccccc2[N+](=O)[O-])c1-c1c(F)cccc1F [Compound 135] | 100 | 68 | 93 | 0 | 99 | 0 |  |  |  |  |  |  |  |  |  |  |  |  |
| Cc1nn(C)c(Nc2c(F)cccc2[N+](=O)[O-])c1-c1c(F)cc(F)cc1Br [Compound 1, 4-(2-bromo-4,6-difluorophenyl)-N-(2-fluoro-6-nitrophenyl)-1,3-dimethyl-1H-pyrazol-5-amine] |  |  |  |  |  |  |  | 100 |  | 100 |  | 100 |  | 84 |  | 100 |  | 99 |
| COc1cc(F)c(-c2c(C)nn(C)c2Nc2c(F)cccc2[N+](=O)[O-])c(F)c1 [Compound 70] | 100 | 100 | 99 | 84 | 99 | 99 |  |  |  |  |  |  |  |  |  |  |  |  |
| COc1ccc(-c2c(C)nn(C)c2Nc2c(C)cccc2[N+](=O)[O-])c(Cl)c1 [Compound 183] | 100 | 99 | 78 | 0 | 100 | 58 |  |  |  |  |  |  |  |  |  |  |  |  |
| Cc1nn(C)c(Nc2ccccc2[N+](=O)[O-])c1-c1c(F)cc(F)cc1F [Compound 149] | 100 | 80 | 97 | 0 | 99 | 96 |  |  |  |  |  |  |  |  |  |  |  |  |
| COc1cc(F)c(Nc2c(-c3ccc(F)cc3Cl)c(C)nn2C)c([N+](=O)[O-])c1 [Compound 85] | 100 | 100 | 97 | 96 | 94 | 98 |  |  |  |  |  |  |  |  |  |  |  |  |
| Cc1nn(C)c(Nc2ccc(OC(F)(F)F)cc2[N+](=O)[O-])c1-c1ccc(F)cc1Cl [Compound 94] | 73 | 0 | 72 | 73 | 0 | 9 |  |  |  |  |  |  |  |  |  |  |  |  |
| Cc1nn(C)c(Nc2cc(Cl)ccc2[N+](=O)[O-])c1-c1ccc(F)cc1Cl [Compound 130] | 85 | 86 | 20 | 0 | 85 | 0 |  |  |  |  |  |  |  |  |  |  |  |  |
| Cc1nn(C)c(Nc2c(Cl)cccc2[N+](=O)[O-])c1-c1ccc(Cl)cc1Cl [Compound 133] | 100 | 86 | 0 | 0 | 97 | 0 |  |  |  |  |  |  |  |  |  |  |  |  |
| Cc1nn(C)c(Nc2c(F)cc(F)cc2[N+](=O)[O-])c1-c1ccc(F)cc1Cl [Compound 109] | 100 | 100 | 100 | 93 | 100 | 99 |  |  |  |  |  |  |  |  |  |  |  |  |
